Tests used:
[1] = system: Rimantadine-resistant M2 proton channel; parameters: method as in PMID 27187859; conditions: cited from earlier work
A. niger [2] = assay: Minimum inhibitory concentration (CLSI); format: cell-based, Aspergillus niger
C. albicans [3] = assay: Minimum inhibitory concentration (CLSI); format: cell-based, Candida albicans
E. coli = assay: Minimum inhibitory concentration (CLSI); format: cell-based, Escherichia coli
B. subtilis [4] = assay: Minimum inhibitory concentration (CLSI); format: cell-based, Bacillus subtilis
St. aureus [5] = assay: Minimum inhibitory concentration (CLSI); format: cell-based, Staphylococcus aureus; conditions: ATCC 29213 strain used for MIC
Experimental: Minimum inhibitory concentrations (MIC) were determined for the selected active strains according to the Performance Standards for Antimicrobial Susceptibility Testing (CLSI). The Staphylococcus aureus ATCC 29213 strain was used for MIC measurements. Amphotericin B, clotrimazole, vancomycin and ampicillin were used as positive control.

MCF-7 = assay: MTT assay cytotoxicity; format: cell-based; conditions: Homo sapiens, MCF7, MCF-7 (breast cancer), 72 h
HCT-116 = assay: MTT assay cytotoxicity; format: cell-based; conditions: Homo sapiens, HCT-116 (colon cancer), 72 h
A-549 = assay: MTT assay cytotoxicity; format: cell-based; conditions: Homo sapiens, A549, A-549 (lung cancer), 72 h
WI38 = assay: MTT assay cytotoxicity; format: cell-based; conditions: Homo sapiens, WI-38, WI38 (fibroblasts, normal), 72 h
A. niger [6] = assay: Agar-diffusion assay (zone of inhibition); conditions: Aspergillus niger, 24 h
Experimental: (§1) Initial screening of antimicrobial activity was performed by using agar-diffusion assay against a number of microorganisms: fungi (Aspergillus niger INA 00760), yeast (Candida albicans CBS 8836), gram-positive bacteria (Bacillus subtilis ATCC 6633, Staphylococcus aureus ATCC 25923) and gram-negative bacteria (Escherichia coli ATCC 25922). For the bacterial strains, the agar-diffusion method on the Mueller–Hinton medium was performed using direct colony suspension, equivalent to a 0.5 McFarland standard as inoculate. For the fungal test-strains, the Sabouraud medium was used with 0.2% glucose, inoculated with direct colony suspension (10^6 CFU/100 mL). The tested compounds were applied on Petri dishes on sterile paper disks (6 mm); 100 µg/disk inhibition zones were measured after 24 h incubation at 37 °C. As a positive control, standard antibiotic disks containing 30 µg vancomycin (for B. subtilis), 10 µg gentamicin (for E. coli), and 40 µg fluconazole (for A. niger and C. albicans) were used.

C. albicans [7] = assay: Agar-diffusion assay (zone of inhibition); conditions: Candida albicans, CBS8836, 24 h
Experimental: as §1

B. subtilis [8] = assay: Agar-diffusion assay (zone of inhibition); conditions: Bacillus subtilis, ATCC6633, 24 h
Experimental: as §1

St. aureus [9] = assay: Agar-diffusion assay (zone of inhibition); conditions: Staphylococcus aureus, ATCC25923, 24 h
Experimental: as §1

[10] = system: cancer or normal cell lines; assay: MTT assay cytotoxicity, summary over the cell line panel; conditions: for IC50: read-out: IC50 against cancer cell lines (range over compounds and lines); for toxicity against cancer or normal cell lines: either cancer or normal cell lines
in vitro = conditions: dog
Hek293t = assay: MTT assay cytotoxicity; format: cell-based; conditions: Homo sapiens, HEK-293T, Hek293t (embryonic kidney, normal), 72 h

SMILES | IC50 (MCF-7) [µM] | IC50 (HCT-116) [µM] | IC50 (A-549) [µM] | IC50 (WI38) [µM] | melting point | other results
CC1CCC2(CC1)SC(N)=NC2(C)C (stereo not drawn) [A, spirothiazamenthane] |  |  |  |  |  | activity against the Rimantadine-resistant M2 proton channel [1]: inactive
C[C@@H]1[C@H](O)[C@@H](C)/C=C/C=C/C=C/C=C/C=C/C=C/C=C/[C@H](O[C@@H]2O[C@H](C)[C@@H](O)[C@H](N)[C@@H]2O)C[C@@H]2O[C@](O)(C[C@@H](O)C[C@@H](O)[C@H](O)CC[C@@H](O)C[C@@H](O)CC(=O)O[C@H]1C)C[C@H](O)[C@H]2C(=O)O [Amphotericin B, reference compound] |  |  |  |  |  | MIK (A. niger [2]): 0.04 to 1.5 µg/mL; MIK (C. albicans [3]): 2 µg/mL
CC1(C)S[C@@H]2[C@H](NC(=O)[C@H](N)c3ccccc3)C(=O)N2[C@H]1C(=O)O [Ampicillin, reference compound] |  |  |  |  |  | MIK (E. coli): 2 to 8 µg/mL
Clc1ccccc1C(c1ccccc1)(c1ccccc1)n1ccnc1 [Clotrimazole, reference compound] |  |  |  |  |  | MIK (C. albicans [3]): 4 µg/mL
O=[N+]([O-])C1=NOC2(CCCCCCC2)C1 [Compound 1, 3-Nitro-1-oxa-2-azaspiro[4.7]dodec-2-ene] | 58.8 ± 5 | 20.8 ± 5 | 57.1 ± 7 | 42.2 ± 13 | 55 to 57 °C | MIK (A. niger [2]): 8 µg/mL; MIK (C. albicans [3]): 8 µg/mL; MIK (B. subtilis [4]): 32 µg/mL; MIK (St. aureus [5]): 32 µg/mL; MIK (E. coli): > 256 µg/mL; zone of inhibition at 100 µg/disc (A. niger [6]): 15 mm; zone of inhibition at 100 µg/disc (C. albicans [7]): 24 mm; zone of inhibition at 100 µg/disc (B. subtilis [8]): 12 mm; zone of inhibition at 100 µg/disc (St. aureus [9]): 15 mm; IC50 [10]: 17.7 to 58.8 µM
O=[N+]([O-])C1=NOC2CCCCCCC12 (stereo not drawn) [Compound 2, 3-Nitro-3a,4,5,6,7,8,9,9a-octahydrocycloocta[d]isoxazole] | 35.4 ± 4.5 | 17.7 ± 5 | 40.4 ± 2.5 | 27.4 ± 4 | 52 to 53 °C | MIK (A. niger [2]): 16 µg/mL; MIK (C. albicans [3]): 32 µg/mL; MIK (B. subtilis [4]): 32 µg/mL; MIK (St. aureus [5]): 8 to 16 µg/mL; MIK (E. coli): > 256 µg/mL; zone of inhibition at 100 µg/disc (A. niger [6]): 15 mm; zone of inhibition at 100 µg/disc (C. albicans [7]): 19 mm; zone of inhibition at 100 µg/disc (B. subtilis [8]): 16 mm; zone of inhibition at 100 µg/disc (St. aureus [9]): 25 mm; IC50 [10]: 17.7 to 58.8 µM
NC1=NOC2(CCCCCCC2)C1 [Compound 3, 1-Oxa-2-azaspiro[4.7]dodec-2-en-3-amine] | > 150 | > 500 | > 150 | > 150 |  | CC50 (in vitro): > 550 µM; toxicity against cancer or normal cell lines [10]: not toxic
NC1=NOC2CCCCCCC12 (stereo not drawn) [Compound 4, 3a,4,5,6,7,8,9,9a-Octahydrocycloocta[d]isoxazol-3-amine] | > 150 | > 500 | > 150 | > 150 |  | CC50 (in vitro): > 1790 µM; toxicity against cancer or normal cell lines [10]: not toxic
CS(=O)(=O)NC1=NOC2(CCCCCCC2)C1 [Compound 5a, N-(1-Oxa-2-azaspiro[4.7]dodec-2-en-3-yl)methanesulfonamide] |  |  |  |  | 110 to 111 °C | 
O=S(=O)(Cc1ccccc1)NC1=NOC2(CCCCCCC2)C1 [Compound 5b, N-(1-Oxa-2-azaspiro[4.7]dodec-2-en-3-yl)-1-phenylmethanesulfonamide] | 138 ± 25 | > 200 |  | > 500 | 68 to 70 °C | 
O=S(=O)(NC1=NOC2(CCCCCCC2)C1)c1ccccc1 [Compound 5c, N-(1-Oxa-2-azaspiro[4.7]dodec-2-en-3-yl)benzenesulfonamide] | 116 ± 30 | 63 ± 18 | 163 | 113 | 156 to 157 °C | 
Cc1ccc(S(=O)(=O)NC2=NOC3(CCCCCCC3)C2)cc1 [Compound 5d, 4-Methyl-N-(1-oxa-2-azaspiro[4.7]dodec-2-en-3-yl)benzenesulfonamide] | 94 ± 30 |  | 143 ± 50 | 54.6 ± 7 | 122 to 124 °C | 
Cc1cc(C)c(S(=O)(=O)NC2=NOC3(CCCCCCC3)C2)c(C)c1 [Compound 5e, 2,4,6-Trimethyl-N-(1-oxa-2-azaspiro[4.7]dodec-2-en-3-yl)benzenesulfonamide] | 79 ± 36 | 70.1 ± 11.2 | 61 ± 21 | 95.5 ± 14.3 | 135 to 136 °C | 
O=S(=O)(NC1=NOC2(CCCCCCC2)C1)c1ccc2c(c1)OCCO2 [Compound 5f, N-(1-Oxa-2-azaspiro[4.7]dodec-2-en-3-yl)-2,3-dihydrobenzo[b][1,4]dioxine-6-sulfonamide] | 64.1 ± 8 | 23.6 ± 4.5 | 119 | 42 ± 8.6 | 192 to 194 °C | 
CC(=O)Nc1ccc(S(=O)(=O)NC2=NOC3(CCCCCCC3)C2)cc1 [Compound 5g, N-(4-(N-1-Oxa-2-azaspiro[4.7]dodec-2-en-3-ylsulfamoyl)phenyl)acetamide] | 54.5 ± 15 | 41.3 ± 17 | 54 ± 14 |  | 171 to 173 °C (dec.) | IC50 (Hek293t): 30.4 ± 14.5 µM; IC50 [10]: 17.7 to 58.8 µM
O=S(=O)(NC1=NOC2(CCCCCCC2)C1)c1ccc(F)cc1F [Compound 5h, 2,4-Difluoro-N-(1-oxa-2-azaspiro[4.7]dodec-2-en-3-yl)benzenesulfonamide] | 94.7 ± 15.5 | 97.1 ± 34 | 77.1 ± 10.2 |  | 118 to 119 °C | IC50 (Hek293t): 60 ± 17 µM
O=[N+]([O-])c1ccccc1S(=O)(=O)NC1=NOC2(CCCCCCC2)C1 [Compound 5i, 2-Nitro-N-(1-oxa-2-azaspiro[4.7]dodec-2-en-3-yl)benzenesulfonamide] |  |  |  |  | 164 to 165 °C | 
O=S(=O)(NC1=NOC2(CCCCCCC2)C1)c1ccc2ccccc2c1 [Compound 5j, N-(1-Oxa-2-azaspiro[4.7]dodec-2-en-3-yl)naphthalene-2-sulfonamide] | 26.8 ± 3.5 | 19 ± 3 | 27.5 ± 4.2 |  | 143 to 145 °C | IC50 (Hek293t): 23.1 ± 6.5 µM; IC50 [10]: 17.7 to 58.8 µM
O=S(=O)(NC1=NOC2(CCCCCCC2)C1)c1cccs1 [Compound 5k, N -(1-Oxa-2-azaspiro[4.7]dodec-2-en-3-yl)thiophene-2-sulfonamide] | > 150 | 131 ± 80 | 111 ± 20 |  | 149 to 151 °C | IC50 (Hek293t): 65.5 ± 13.5 µM
O=S(=O)(NC1=NOC2(CCCCCCC2)C1)c1cccnc1 [Compound 5l, N -(1-Oxa-2-azaspiro[4.7]dodec-2-en-3-yl)pyridine-3-sulfonamide] | > 150 | 133 ± 68 | > 150 |  | 145 to 146 °C | IC50 (Hek293t): > 500 µM
CC(N)C12CC3CC(CC(C3)C1)C2 (stereo not drawn) [Rimantadine, reference compound] |  |  |  |  |  | CC50 (in vitro): 406 ± 26 µM
CN[C@H](CC(C)C)C(=O)N[C@H]1C(=O)N[C@@H](CC(N)=O)C(=O)N[C@H]2C(=O)N[C@H]3C(=O)N[C@H](C(=O)N[C@H](C(=O)O)c4cc(O)cc(O)c4-c4cc3ccc4O)[C@H](O)c3ccc(c(Cl)c3)Oc3cc2cc(c3O[C@@H]2O[C@H](CO)[C@@H](O)[C@H](O)[C@H]2O[C@H]2C[C@](C)(N)[C@H](O)[C@H](C)O2)Oc2ccc(cc2Cl)[C@H]1O [Vancomycin, reference compound] |  |  |  |  |  | MIK (B. subtilis [4]): 0.25 to 1 µg/mL; MIK (St. aureus [5]): 0.5 to 2 µg/mL

From PMC9182378, “Bicyclic Isoxazoline Derivatives: Synthesis and Evaluation of Biological Activity” (Molecules, 2022)
